These results are taken from PMC11995724, “Antibiotic target discovery by integrated phenotypic and activity-based profiling of electrophilic fragments” (Cell chemical biology, 2025).

By viability is commonly meant a read-out of living cells in per cent, often relative to untreated cells.

The series is described as follows: in vitro. As to conditions: human, hek293t cells.
Regarding `C=CC(=O)N1CCC(n2cc(C(N)=O)nn2)C1` (centres unmarked) [1-C18, 1-[1-(prop-2-enoyl)pyrrolidin-3-yl]-1H-1,2,3-triazole-4-carboxamide], the viability at 48 h, 25 µM came out at 79.6%.
With `C=CC(=O)Nc1ccc2c(c1)N(CC#N)CC2` [1-C19, N-[1-(cyanomethyl)-2,3-dihydro-1H-indol-6-yl]prop-2-enamide] the figure was 94.7%; with `C=CC(=O)Nc1ccc(OCCC)c(C)c1` [1-C20, N-(3-methyl-4-propoxyphenyl)prop-2-enamide], 80.1%; with `C=CC(=O)Nc1ccc(C(C)Sc2ccccc2)cc1` (centres unmarked) [1-C21, N-{4-[1-(phenylsulfanyl)ethyl]phenyl}prop-2-enamide], 69.7%.
Regarding `C=CC(=O)Nc1ccc2c(c1)SCC(=O)N2` [1-C22, N-(3-oxo-3,4-dihydro-2H-1,4-benzothiazin-7-yl)prop-2-enamide], the viability at 48 h, 25 µM amounted to 109%.
For `C=CC(=O)N(C[C@H]1CCCO1)C1CCC(CC)CC1` (stereo partly drawn) [1-D03, N-(4-ethylcyclohexyl)-N-{[(2R)-oxolan-2-yl]methyl}prop-2-enamide] the value was 94.6%; for `C=CC(=O)N(Cc1cccc2ccoc12)C1CCSCC1` [1-D04, N-[(1-benzofuran-7-yl)methyl]-N-(thian-4-yl)prop-2-enamide], 70.4%.
Regarding `C=CC(=O)NC1CCOc2c(F)cccc21` (centres unmarked) [1-D05, N-(8-fluoro-3,4-dihydro-2H-1-benzopyran-4-yl)prop-2-enamide], the viability at 48 h, 25 µM was found to be 99.1%.
For `C=CC(=O)NC1COCC1C` (centres unmarked) [1-D06, N-(4-methyloxolan-3-yl)prop-2-enamide] the value was 77.2%.
For `C=CC(=O)N1CCCC(c2nn(C)cc2C(N)=O)C1` (centres unmarked) [1-D07, 1-methyl-3-[1-(prop-2-enoyl)piperidin-3-yl]-1H-pyrazole-4-carboxamide] the value was 107%; for `C=CC(=O)Nc1nc(-c2cccs2)cs1` [1-D08, N-[4-(thiophen-2-yl)-1,3-thiazol-2-yl]prop-2-enamide], 1.21%.
With `C=CC(=O)N1CCCC(n2ccnn2)C1` (centres unmarked) [1-D09, 1-[3-(1H-1,2,3-triazol-1-yl)piperidin-1-yl]prop-2-en-1-one] the figure was 93.6%; with `C=CC(=O)NC1CC(C2CCCCC2)C1` (centres unmarked) [1-D10, N-(3-cyclohexylcyclobutyl)prop-2-enamide], 75.7%; with `C=CC(=O)N(Cc1ccc(F)cn1)c1cnn(C2CCCC2)c1C` [1-D11, N-(1-cyclopentyl-5-methyl-1H-pyrazol-4-yl)-N-[(5-fluoropyridin-2-yl)methyl]prop-2-enamide], 97.3%.
Regarding `C=CC(=O)Nc1ccc(N2CCN(CC)CC2)cc1` [1-D12, N-[4-(4-ethylpiperazin-1-yl)phenyl]prop-2-enamide], the viability at 48 h, 25 µM came to 77.2%.
Consider `C=CC(=O)NCCc1csc(C)n1` [1-D13, N-[2-(2-methyl-1,3-thiazol-4-yl)ethyl]prop-2-enamide], for which the viability at 48 h, 25 µM stood at 106%.
For `C=CC(=O)N1CCC(F)CC1` [1-D14, 1-(4-fluoropiperidin-1-yl)prop-2-en-1-one] the value was 69.9%.
On to `C=CC(=O)N(Cc1cnc(C2CC2)o1)C1CCCCC1C` (centres unmarked) [1-D15, N-[(2-cyclopropyl-1,3-oxazol-5-yl)methyl]-N-(2-methylcyclohexyl)prop-2-enamide], for which the viability at 48 h, 25 µM is 118%.
For `C=CC(=O)NCC(=O)c1scc(C)c1Cl` [1-D16, N-[2-(3-chloro-4-methylthiophen-2-yl)-2-oxoethyl]prop-2-enamide] the value was 65.2%.
With `C=CC(=O)NCC1CCCCN1S(C)(=O)=O` (centres unmarked) [1-D17, N-[(1-methanesulfonylpiperidin-2-yl)methyl]prop-2-enamide] the figure was 161%; with `C=CC(=O)N1CCn2c(nnc2C(F)(F)F)C1` [1-D18, 1-[3-(trifluoromethyl)-5H,6H,7H,8H-[1,2,4]triazolo[4,3-a]pyrazin-7-yl]prop-2-en-1-one], 66.6%.
For `C=CC(=O)N1CCC(S(=O)(=O)NC(C)C)C1` (centres unmarked) [1-D19, 1-(prop-2-enoyl)-N-(propan-2-yl)pyrrolidine-3-sulfonamide] the value was 218%.
Take `C=CC(=O)Nc1ccc(-c2nc3cc(C)ccc3o2)cc1` [1-D20, N-[4-(5-methyl-1,3-benzoxazol-2-yl)phenyl]prop-2-enamide]: the viability at 48 h, 25 µM worked out at 1.53%.
For the molecule `C=CC(=O)Nc1ccc(CN2CCC(C)CC2)cc1` [1-D21, N-{4-[(4-methylpiperidin-1-yl)methyl]phenyl}prop-2-enamide], the viability at 48 h, 25 µM was found to be 157%.
For `C=CC(=O)N1CC2(CCOCC2)C1c1ccco1` (centres unmarked) [1-D22, 1-[1-(furan-2-yl)-7-oxa-2-azaspiro[3.5]nonan-2-yl]prop-2-en-1-one] the value was 72.1%.
For `C=CC(=O)N(C)C1CS(=O)(=O)C1` [1-E03, N-(1,1-dioxo-1lambda6-thietan-3-yl)-N-methylprop-2-enamide] the value was 86.3%; for `C=CC(=O)Nc1cc(C(C)(C)C)nn1-c1ncccn1` [1-E04, N-[3-tert-butyl-1-(pyrimidin-2-yl)-1H-pyrazol-5-yl]prop-2-enamide], 88.8%.
With `C=CC(=O)Nc1cnn(CCF)c1` [1-E05, N-[1-(2-fluoroethyl)-1H-pyrazol-4-yl]prop-2-enamide] the figure was 78.3%; with `C=CC(=O)N1CCC(C(=O)Nc2cc(Cl)ccc2SCC)CC1` [1-E06, N-[5-chloro-2-(ethylsulfanyl)phenyl]-1-(prop-2-enoyl)piperidine-4-carboxamide], 111%.
On to `C=CC(=O)NCc1cccc2c1OCO2` [1-E07, N-[(1,3-dioxaindan-4-yl)methyl]prop-2-enamide], for which the viability at 48 h, 25 µM is 69.1%.
With `C=CC(=O)NC1C(=O)OCC1(C)C` (centres unmarked) [1-E08, N-(4,4-dimethyl-2-oxooxolan-3-yl)prop-2-enamide] the figure was 83.7%; with `C=CC(=O)N1CCC(C(=O)N2CCc3ccccc32)CC1` [1-E09, 1-[4-(2,3-dihydro-1H-indole-1-carbonyl)piperidin-1-yl]prop-2-en-1-one], 68%; with `C=CC(=O)NC1CCC(F)(F)CC1F` (centres unmarked) [1-E11, N-(2,4,4-trifluorocyclohexyl)prop-2-enamide], 69.4%.
`C=CC(=O)NC12CC3CC(CC(C3)C1)C2` [1-E12, N-(adamantan-1-yl)prop-2-enamide]: the viability at 48 h, 25 µM amounted to 56.7%.
Turning to `C=CC(=O)Nc1c(C)cccc1SCC(=O)N(C)C` [1-E13, N-(2-{[(dimethylcarbamoyl)methyl]sulfanyl}-6-methylphenyl)prop-2-enamide], the viability at 48 h, 25 µM worked out at 78.8%.
`C=CC(=O)N1CCC(C(=O)NCc2ccoc2C)CC1` [1-E14, N-[(2-methylfuran-3-yl)methyl]-1-(prop-2-enoyl)piperidine-4-carboxamide]: the viability at 48 h, 25 µM worked out at 85.4%.
With `C=CC(=O)N1CCC(O)(c2ccccc2)CC1` [1-E15, 1-(4-hydroxy-4-phenylpiperidin-1-yl)prop-2-en-1-one] the figure was 79.8%.
For `C=CC(=O)Nc1cc(Cl)cc(C)c1OC` [1-E16, N-(5-chloro-2-methoxy-3-methylphenyl)prop-2-enamide] the value was 45.9%; for `C=CC(=O)NCc1c(C(F)(F)F)coc1C` [1-E17, N-{[2-methyl-4-(trifluoromethyl)furan-3-yl]methyl}prop-2-enamide], 84.9%; for `C=CC(=O)Nc1ccc(C(N)=O)nc1OC` [1-E18, 6-methoxy-5-(prop-2-enamido)pyridine-2-carboxamide], 69.6%.
With `C=CC(=O)Nc1ccc2cc(N(C)C)ccc2c1` [1-E19, N-[6-(dimethylamino)naphthalen-2-yl]prop-2-enamide] the figure was 46.5%; with `C=CC(=O)N1CCC(C(=O)NCc2ccc(Cl)cc2Cl)CC1` [1-E20, N-[(2,4-dichlorophenyl)methyl]-1-(prop-2-enoyl)piperidine-4-carboxamide], 95.8%.
In the case of `C=CC(=O)NCC(C)(C)C1CCCCC1` [1-E21, N-(2-cyclohexyl-2-methylpropyl)prop-2-enamide], the viability at 48 h, 25 µM was determined as 75.5%.
For `C=CC(=O)Nc1cnn(-c2ccccc2C)c1C(F)F` [1-E22, N-[5-(difluoromethyl)-1-(2-methylphenyl)-1H-pyrazol-4-yl]prop-2-enamide] the value was 116%; for `C=CC(=O)N1CCN(CC(=O)NC)CC1` [1-F03, N-methyl-2-[4-(prop-2-enoyl)piperazin-1-yl]acetamide], 158%; for `C=CC(=O)N(Cc1cccc(Cl)c1F)C(C)C1CCOCC1` (centres unmarked) [1-F04, N-[(3-chloro-2-fluorophenyl)methyl]-N-[1-(oxan-4-yl)ethyl]prop-2-enamide], 58.7%.
For `C=CC(=O)Nc1cccc2c1CCN2C(C)=O` [1-F05, N-(1-acetyl-2,3-dihydro-1H-indol-4-yl)prop-2-enamide] the value was 110%; for `C=CC(=O)NC1CCOC1C` (centres unmarked) [1-F06, N-(2-methyloxolan-3-yl)prop-2-enamide], 74.6%.
For `C=CC(=O)N(C)Cc1ccnn1CC` [1-F07, N-[(1-ethyl-1H-pyrazol-5-yl)methyl]-N-methylprop-2-enamide] the value was 100%; for `C=CC(=O)Nc1cc(SCc2ccccc2C)ncn1` [1-F08, N-(6-{[(2-methylphenyl)methyl]sulfanyl}pyrimidin-4-yl)prop-2-enamide], 0.816%.
Consider `C=CC(=O)N(Cc1c(C)cccc1OC)C1CCCCNC1=O` (centres unmarked) [1-F09, N-[(2-methoxy-6-methylphenyl)methyl]-N-(2-oxoazepan-3-yl)prop-2-enamide], for which the viability at 48 h, 25 µM was 85.8%.
With `C=CC(=O)NC(C)Cn1nc(C)cc1C` (centres unmarked) [1-F10, N-[1-(3,5-dimethyl-1H-pyrazol-1-yl)propan-2-yl]prop-2-enamide] the figure was 55.7%; with `C=CC(=O)N(Cc1nccc2c1CCCC2)C1CCCC(OC)C1` (centres unmarked) [1-F11, N-(3-methoxycyclohexyl)-N-[(5,6,7,8-tetrahydroisoquinolin-1-yl)methyl]prop-2-enamide], 100%.
